# Data taken from patent publication US20160220569A1, “CDK4/6 Inhibitor Dosage Formulations For The Protection Of Hematopoietic Stem And Progenitor Cells During Chemotherapy” (G1 Therapeutics, Inc., priority 2015, published 2016).
# “And” between values parts separate entries of the source, which are not always exact repeats. Equal values may be shown once. Read-outs that look alike come from different tables or passages of the source.
# Assay: Single escalating dose IV infusion pharmacokinetics in healthy volunteers (noncompartmental)
# Assay type: in vivo, human
# Settings: for HL_Lambda_z / highest (peak) concentration: individual subjects; for HL_Lambda_z: WinNonlin noncompartmental analysis, in h
# Method: Forty-five subjects have enrolled in the study.
# Analysis of plasma concentration versus time data for calculation of standard pharmacokinetic (PK) parameters following intravenous infusion administration was conducted using Phoenix WinNonlin version 6.3 using a nominal infusion duration and scheduled blood sampling times. Random subject numbers were assigned by the bioanalytical laboratory to retain the blind.
# (§1) Analysis of plasma concentration versus time data for calculation of standard pharmacokinetic (PK) parameters following intravenous infusion administration was conducted using Phoenix WinNonlin version 6.3 using a nominal infusion duration and scheduled blood sampling times.
# as §1
# [1] = Cohort 2, 12 mg/m^2 IV, r6-8=Subjects 1-3,r10=Mean,r12=Min,r13=Median,r14=Max,r16=Geometric Mean, geometric mean
# [2] = Cohort 2, 12 mg/m^2 IV, r6-8=Subjects 1-3,r10=Mean,r12=Min,r13=Median,r14=Max,r16=Geometric Mean, mean
# [3] = Cohort 2, 12 mg/m^2 IV, r6-8=Subjects 1-3,r10=Mean,r12=Min,r13=Median,r14=Max,r16=Geometric Mean, median
# [4] = Cohort 3, 24 mg/m^2 IV, r6-8=Subjects 1-3,r10=Mean,r12=Min,r13=Median,r14=Max,r16=Geometric Mean, geometric mean
# [5] = Cohort 3, 24 mg/m^2 IV, r6-8=Subjects 1-3,r10=Mean,r12=Min,r13=Median,r14=Max,r16=Geometric Mean, maximum
# [6] = Cohort 3, 24 mg/m^2 IV, r6-8=Subjects 1-3,r10=Mean,r12=Min,r13=Median,r14=Max,r16=Geometric Mean, mean
# [7] = Cohort 3, 24 mg/m^2 IV, r6-8=Subjects 1-3,r10=Mean,r12=Min,r13=Median,r14=Max,r16=Geometric Mean, median
# [8] = Cohort 3, 24 mg/m^2 IV, r6-8=Subjects 1-3,r10=Mean,r12=Min,r13=Median,r14=Max,r16=Geometric Mean, minimum
# [9] = Cohort 4, 48 mg/m^2 IV, r6-8=Subjects 1-3,r10=Mean,r12=Min,r13=Median,r14=Max,r16=Geometric Mean, geometric mean
# [10] = Cohort 4, 48 mg/m^2 IV, r6-8=Subjects 1-3,r10=Mean,r12=Min,r13=Median,r14=Max,r16=Geometric Mean, maximum
# [11] = Cohort 4, 48 mg/m^2 IV, r6-8=Subjects 1-3,r10=Mean,r12=Min,r13=Median,r14=Max,r16=Geometric Mean, mean
# [12] = Cohort 4, 48 mg/m^2 IV, r6-8=Subjects 1-3,r10=Mean,r12=Min,r13=Median,r14=Max,r16=Geometric Mean, median
# [13] = Cohort 4, 48 mg/m^2 IV, r6-8=Subjects 1-3,r10=Mean,r12=Min,r13=Median,r14=Max,r16=Geometric Mean, minimum
# [14] = Cohort 5, 96 mg/m^2, 30-minute IV infusion, noncompartmental, subjects 1-6, Mean, Min, Median, Max, Geometric Mean, minimum
smiles,measurement,setting,value
"CN1CCN(c2ccc(Nc3ncc4cc5n(c4n3)C3(CCCCC3)CNC5=O)nc2)CC1 [Compound 1, 2′-((5-(4-methylpiperazin-1-yl)pyridin-2-yl)amino)-7′,8′-dihydro-6′H-spiro[cyclohexane-1,9′-pyrazino[1′,2′:1,5]pyrrolo[2,3-d]pyrimidin]-6′-one]",HL_Lambda_z,"Cohort 1, 6 mg/m^2",6.358 and 3.5207 and 4.7366
same,highest (peak) concentration,"Cohort 1, 6 mg/m^2 IV",42.7 ng/mL and 42.9 ng/mL and 60.5 ng/mL
same,Clearance (CL),"Cohort 1, 6 mg/m^2 IV, mean",91.4 L/h/m^2
same,volume of distribution at steady state (Vss) averaging,"Cohort 1, 6 mg/m^2 IV, mean",358 L/m^2
same,HL_Lambda_z,"Cohort 2, 12 mg/m^2",7.5562 and 8.8853
same,highest (peak) concentration,"Cohort 2, 12 mg/m^2 IV",87.4 ng/mL and 136 ng/mL
same,Clearance (CL),"Cohort 2, 12 mg/m^2 IV, mean",83.5 L/h/m^2
same,volume of distribution at steady state (Vss) averaging,"Cohort 2, 12 mg/m^2 IV, mean",461 L/m^2
same,AUCinf,[1],0.146 µg·h/mL
same,CL,[1],82.4 L/h/m^2
same,Cmax,[1],0.119 µg/mL
same,MRTinf,[1],5.51 h
same,Tmax,[1],0.397 h
same,Vss,[1],454 L/m^2
same,λz,[1],0.0845 h⁻¹
same,CL,[2],83.5 L/h/m^2
same,Vss,[2],461 L/m^2
same,λz,[2],0.0847 h⁻¹
same,AUCinf,[3],0.136 µg·h/mL
same,CL,[3],88.4 L/h/m^2
same,Cmax,[3],0.136 µg/mL
same,MRTinf,[3],5.98 h
same,Vss,[3],405 L/m^2
same,λz,[3],0.0844 h⁻¹
same,HL_Lambda_z,"Cohort 3, 24 mg/m^2",13.1458 and 8.6328 and 7.8478
same,Clearance (CL),"Cohort 3, 24 mg/m^2 IV, mean",90.7 L/h/m^2
same,volume of distribution at steady state (Vss) averaging,"Cohort 3, 24 mg/m^2 IV, mean",562 L/m^2
same,AUClast,[4],0.253 µg·h/mL
same,Vss,[4],550 L/m^2
same,λz,[4],0.0720 h⁻¹
same,AUClast,[5],0.337 µg·h/mL
same,Vss,[5],674 L/m^2
same,λz,[5],0.0883 h⁻¹
same,Vss,[6],562 L/m^2
same,λz,[6],0.0738 h⁻¹
same,AUClast,[7],0.259 µg·h/mL
same,Vss,[7],599 L/m^2
same,λz,[7],0.0803 h⁻¹
same,AUClast,[8],0.186 µg·h/mL
same,Vss,[8],412 L/m^2
same,λz,[8],0.0527 h⁻¹
same,HL_Lambda_z,"Cohort 4, 48 mg/m^2",10.9028 and 7.2383 and 8.5525
same,Clearance (CL),"Cohort 4, 48 mg/m^2 IV, mean",96.5 L/h/m^2
same,volume of distribution at steady state (Vss) averaging,"Cohort 4, 48 mg/m^2 IV, mean",771 L/m^2
same,Tmax,"Cohort 4, 48 mg/m^2 IV, r6-8=Subjects 1-3,r10=Mean,r12=Min,r13=Median,r14=Max,r16=Geometric Mean",0.25 h
same,AUCinf,[9],0.498 µg·h/mL
same,AUClast,[9],0.452 µg·h/mL
same,CL,[9],96.4 L/h/m^2
same,MRTinf,[9],7.83 h
same,Tmax,[9],0.397 h
same,Vss,[9],754 L/m^2
same,λz,[9],0.0790 h⁻¹
same,AUCinf,[10],0.524 µg·h/mL
same,AUClast,[10],0.48 µg·h/mL
same,CL,[10],105 L/h/m^2
same,Cmax,[10],0.228 µg/mL
same,MRTinf,[10],10.7 h
same,Vss,[10],995 L/m^2
same,λz,[10],0.0958 h⁻¹
same,CL,[11],96.5 L/h/m^2
same,Vss,[11],771 L/m^2
same,λz,[11],0.0801 h⁻¹
same,AUCinf,[12],0.514 µg·h/mL
same,AUClast,[12],0.441 µg·h/mL
same,CL,[12],93.3 L/h/m^2
same,Cmax,[12],0.227 µg/mL
same,MRTinf,[12],7.80 h
same,Vss,[12],715 L/m^2
same,λz,[12],0.0810 h⁻¹
same,AUCinf,[13],0.459 µg·h/mL
same,AUClast,[13],0.437 µg·h/mL
same,CL,[13],91.7 L/h/m^2
same,MRTinf,[13],5.76 h
same,Tmax,[13],0.250 h
same,Vss,[13],603 L/m^2
same,λz,[13],0.0636 h⁻¹
same,AUClast,"Cohort 5, 96 mg/m^2, 30-minute IV infusion, noncompartmental, subjects 1-6, Mean, Min, Median, Max, Geometric Mean, mean",1.24 µg·h/mL
same,AUClast,[14],1.04 µg·h/mL
same,Tmax,[14],0.250 h
same,maximum mean concentration,"Cohort 5, 96 mg/m^2 IV, at the end of infusion (EOI)",874 ng/mL
same,Clearance (CL),"Cohort 5, 96 mg/m^2 IV, mean",74 L/h/m^2
same,volume of distribution at steady state (Vss) averaging,"Cohort 5, 96 mg/m^2 IV, mean",429 L/m^2
same,HL_Lambda_z,"Cohort 5, received 96 mg/m^2",8.4971 and 10.9427 and 7.5378 and 10.6557 and 7.1128 and 6.9746
same,Clearance (CL),"Cohort 6, […]^2 IV, mean",62.1 L/h/m^2
same,volume of distribution at steady state (Vss) averaging,"Cohort 6, […]^2 IV, mean",547 L/m^2
same,AUC(0-inf),"both sexes, human, plasma, iv, 6 mg/m2, Cohort 1, 6 mg/m^2 IV, mean, read-out: AUCinf averaged",0.0677 µg·h/mL
same,Cmax,"both sexes, human, plasma, iv, 6 mg/m2, Cohort 1, 6 mg/m^2 IV, mean, read-out: Cmax averaged",0.0509 µg/mL
same,Tmax,"both sexes, human, plasma, iv, 6 mg/m2, Cohort 1, 6 mg/m^2 IV, mean, read-out: Tmax",0.33 h
same,half-life,"both sexes, human, plasma, iv, 6 mg/m2, Cohort 1, 6 mg/m^2 IV, mean, read-out: average half-life (converted)",4.87 h
same,MRT inf,"both sexes, human, plasma, iv, 6 mg/m2, Cohort 1, 6 mg/m^2 IV, r6-8=Subjects 1-3,r10=Mean,r12=Min,r13=Median,r14=Max,r16=Geometric Mean",4.18 h
same,AUC(0-inf),"both sexes, human, plasma, iv, 6 mg/m2, Cohort 1, 6 mg/m^2 IV, r6-8=Subjects 1-3,r10=Mean,r12=Min,r13=Median,r14=Max,r16=Geometric Mean, read-out: AUCinf",0.0677 µg·h/mL
same,Cmax,"both sexes, human, plasma, iv, 6 mg/m2, Cohort 1, 6 mg/m^2 IV, r6-8=Subjects 1-3,r10=Mean,r12=Min,r13=Median,r14=Max,r16=Geometric Mean, read-out: Cmax",0.0509 µg/mL
same,Tmax,"both sexes, human, plasma, iv, 6 mg/m2, Cohort 1, 6 mg/m^2 IV, r6-8=Subjects 1-3,r10=Mean,r12=Min,r13=Median,r14=Max,r16=Geometric Mean, read-out: Tmax",0.333 h
same,half-life,"both sexes, human, plasma, iv, 6 mg/m2, Cohort 1, 6 mg/m^2 IV, r6-8=Subjects 1-3,r10=Mean,r12=Min,r13=Median,r14=Max,r16=Geometric Mean, read-out: t½ (converted)",4.87 h
